# From patent US7105527B2, “N4-acylcytosine nucleosides for treatment of viral infections” (priority 2001, dated 2006)
# Legend:
# Type in all cases: cell-based
# [1] = test system: HIV-1LAl; test: Anti-HIV (in PBM cells) assay, reverse transcriptase readout; settings: Table 2, read-out: Anti-HIV-1 activity in different cells (EC90, μM) PBM
# Outline: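 Human PBM cells infected with HIV-1; compounds diluted from DMSO stocks into growth medium, AZT as positive control. Virus in supernatant quantified day 6 post-infection by reverse transcriptase assay with (rA)n.(dT)12.18 template-primer; EC50 and EC90 from concentration-response curves by median effective method.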
# [2] = test system: HIV-1RF; test: Anti-HIV (in MT-2 cells) assay, viral RNA accumulation; settings: Table 2; EC90; MT-2 cells; read-out: Anti-HIV-1 activity in different cells (EC90, μM) MT-2
# Outline: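 HIV-1RF in MT-2 cells: viral RNA quantified after 3 days of infection by biotinylated capture/alkaline phosphatase reporter oligonucleotides. HIV-1NL4-3 recombinant virus in MT-4 cells: drug added 24 h post-infection, p24 measured by ELISA 3 days later.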
# [3] = test system: HIV-1NL4-3; test: Anti-HIV assay in MT-4 cells, consensus p24 assay; settings: Table 2, read-out: Anti-HIV-1 activity in different cells (EC90, μM) MT-4
# Description: In a second antiviral testing system, the potency of the compounds was determined by measurement of viral RNA accumulation in HIV-1RF infected MT-2 cells (Bacheler L T, Paul M, Otto M J, Jadhav P K, Stone B A & Miller J A (1994) An assay for HIV RNIn infected cell lysates, and its use for rapid evaluation of antiviral efficacy. Antivir. Chem. Chemother. 5:111–121). The virus titer was established to determine the dilution producing 15 to 30 ng/RNA per well of HIV RNIn 3 days of infection. HIV-1 RNA was quantified using biotinylated capture and alkaline phosphatase-derivatized reporter oligonucleotides as described previously (Charvet A-S, Camplo M, Faury P, Graciet J C, Mourier N, Chermann J C & Kraus J L (1994) Inhibition of human immunodeficiency virus type 1 replication by phosphonoformate- and phosphonoacetate-2′,3′-dideoxy-3′-thiacytidine conjugates. J. Med. Chem. 37:2216–2223). In a third system, the effect of analogs on the replication of HIV-1NL4-3 was determined via the InterCompany Consortium consensus p24 assay as previously described (Jadhav P K & MacKay M F (1997) Cyclic urea amide: HIV-1 protease inhibitors with low nanomolar potency against both wild types and protease inhibitor resistant mutants of HIV. J. Med. Chem. 40:181–190). Recombinant viruses were recovered by transfecting the appropriate NL4-3 plasmid by lipofection. Virus stocks recovered 7 to 10 days post-transfection were titered on MT-4 cells to determine if the dilution produced 1,000 to 3,000 ng p24 in 4 days. This dilution was then used in drug susceptibility assays, where drug was added 24 h post infection of cells, and p24 quantified by ELISA 3 days later.
# [4] = test system: human PBM cells; test: Cytotoxicity assay in PBM cells; settings: Table 2, read-out: Cytotoxicity in different cells (IC50, μM) PBM
# Outline: (§1)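 Compound toxicity measured in each cell type, with cycloheximide as positive cytotoxic control and solvent-exposed untreated cells as negative control. Cytotoxicity IC50 derived from concentration-response curves by the median effective method.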
# [5] = test system: CEM (human lymphoblastoid) cells; test: Cytotoxicity assay in CEM cells; settings: Table 2, read-out: Cytotoxicity in different cells (IC50, μM) CEM
# Outline: as §1
# [6] = test system: Vero cells; test: Cytotoxicity assay in Vero cells; settings: Table 2, read-out: Cytotoxicity in different cells (IC50, μM) Vero
# Outline: as §1
# [7] = test system: MT-2 cells; test: Cytotoxicity assay in MT-2 cells; settings: Table 2, read-out: Cytotoxicity in different cells (IC50, μM) MT-2
# Outline: as §1
# [8] = test system: HepG2 cells; test: Cytotoxicity assay in HepG2 cells; settings: Table 2, read-out: Cytotoxicity in different cells (IC50, μM) HepG2
# Outline: as §1
Structure (SMILES),EC90 [1] [µM],EC90 [2] [µM],EC90 [3] [µM],IC50 [4] [µM],IC50 [5] [µM],IC50 [6] [µM],IC50 [7] [µM],IC50 [8] [µM]
"O=C(Nc1nc(=O)n([C@H]2C=C[C@@H](CO)O2)cc1F)c1cccc(F)c1 [Compound 39, β-D-2′,3′-Didehydro-2′,3′-dideoxy-5-fluoro-N^4-(3-fluorobenzoyl)cytidine]",7.82,1,3.1,45.3,4.2,> 100,> 50,> 100
"O=C(Nc1nc(=O)n([C@H]2C=C[C@@H](CO)O2)cc1F)c1cccc(Cl)c1 [Compound 40, β-D-N^4-(3-Chlorobenzoyl)-2′,3′-didehydro-2,3′-dideoxy-5-fluorocytidine]",1.71,2,3.4,45.3,11.2,100,> 50,32.4
"O=C(Nc1nc(=O)n([C@H]2C=C[C@@H](CO)O2)cc1F)c1cccc(Br)c1 [Compound 41, β-D-N^4-(3-Bromobenzoyl)-2′,3′-didehydro-2′,3′-dideoxy-5-fluorocytidine]",1.71,1,2.2,51.6,24.9,99.7,> 50,> 100
"CCc1ccc(C(=O)Nc2nc(=O)n([C@H]3C=C[C@@H](CO)O3)cc2F)cc1 [Compound 51, β-D-2′,3′-Didehydro-2′,3′-dideoxy-N^4-(4-ethyllbenzoyl)-5-fluorocytidine]",6.2,0.24,2.3,13,8.1,40.3,> 50,> 100
"CC(C)(C)c1ccc(C(=O)Nc2nc(=O)n([C@H]3C=C[C@@H](CO)O3)cc2F)cc1 [Compound 53, β-D-N^4-(4-tert-Butylbenzoyl)-2′,3′-didehydro-2′,3′-dideoxy-5-fluorocytidine]",0.41,0.13,1.1,5,9.9,59.2,> 50,> 100
"CCCC(=O)Nc1nc(=O)n([C@H]2C=C[C@@H](CO)O2)cc1F [Compound 60, β-D-N^4-Butyryl-2′,3′-didehydro-2′,3′-dideoxy-5-fluorocytidine]",1.89,2.4,3.1,52.4,12.2,> 100,> 50,> 100
"Nc1nc(=O)n([C@H]2C=C[C@@H](CO)O2)cc1F [D-D4FC, β-D-2′,3′-Dideoxy-2′,3′-didehydro-5-fluorocytidine, reference compound]",0.77,1.19,1.15,> 100,> 100,> 100,> 50,> 100
